Like-named read-outs stand apart in the source and are kept apart here.
Key:
[1] = tested on: forty-four human cancer cell lines; test: Cell proliferation assay (ATPlite, 72 hours) in the 44 cell line Oncolines panel; assay type: cell-based; settings: Homo sapiens
[2] = target: panel of more than 300 wild-type and mutant kinases (313 kinase panel) (Homo sapiens, UniProt P00519, E255K); test: Kinase profiling in a biochemical assay panel (mobility shift assays and ELISA), %-inhibition at 1 μM; selectivity entropy; settings: kinase ABL(E255K); 1 μM compound
[3] = target: panel of more than 300 wild-type and mutant kinases (313 kinase panel) (Homo sapiens, UniProt P11362, V561M); test: as above; settings: kinase FGFR1(V561M); compound at 1 μM
[4] = target: T1, panel of more than 300 wild-type and mutant kinases (313 kinase panel) (Homo sapiens, UniProt P30530); test: as above
T1 sequence (P30530 26-894): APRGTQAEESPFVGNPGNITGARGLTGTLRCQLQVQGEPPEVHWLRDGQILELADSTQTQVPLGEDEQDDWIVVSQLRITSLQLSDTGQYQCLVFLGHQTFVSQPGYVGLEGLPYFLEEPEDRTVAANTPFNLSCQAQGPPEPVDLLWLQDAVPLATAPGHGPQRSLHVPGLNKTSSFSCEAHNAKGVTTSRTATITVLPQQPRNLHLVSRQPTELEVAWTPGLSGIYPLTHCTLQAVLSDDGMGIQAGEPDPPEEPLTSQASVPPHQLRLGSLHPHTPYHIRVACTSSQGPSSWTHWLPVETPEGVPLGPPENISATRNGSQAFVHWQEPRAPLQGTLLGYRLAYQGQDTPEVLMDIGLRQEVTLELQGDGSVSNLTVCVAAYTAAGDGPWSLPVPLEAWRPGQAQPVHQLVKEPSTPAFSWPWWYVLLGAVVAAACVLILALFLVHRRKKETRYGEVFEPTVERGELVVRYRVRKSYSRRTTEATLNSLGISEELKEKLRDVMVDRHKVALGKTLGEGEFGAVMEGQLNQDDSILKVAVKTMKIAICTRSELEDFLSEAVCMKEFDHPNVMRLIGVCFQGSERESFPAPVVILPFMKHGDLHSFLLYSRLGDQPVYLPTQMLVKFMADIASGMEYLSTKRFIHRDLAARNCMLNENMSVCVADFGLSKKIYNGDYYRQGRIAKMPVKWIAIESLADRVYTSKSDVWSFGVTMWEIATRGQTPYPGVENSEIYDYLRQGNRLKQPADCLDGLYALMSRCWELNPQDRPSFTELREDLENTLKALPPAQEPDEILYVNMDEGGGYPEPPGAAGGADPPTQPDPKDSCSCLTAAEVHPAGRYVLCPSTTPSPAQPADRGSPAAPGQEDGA

[5] = target: T2, panel of more than 300 wild-type and mutant kinases (313 kinase panel) (Homo sapiens, UniProt P51955); test: as above; settings: kinase NEK2; 1 μM
T2 sequence (P51955 1-445): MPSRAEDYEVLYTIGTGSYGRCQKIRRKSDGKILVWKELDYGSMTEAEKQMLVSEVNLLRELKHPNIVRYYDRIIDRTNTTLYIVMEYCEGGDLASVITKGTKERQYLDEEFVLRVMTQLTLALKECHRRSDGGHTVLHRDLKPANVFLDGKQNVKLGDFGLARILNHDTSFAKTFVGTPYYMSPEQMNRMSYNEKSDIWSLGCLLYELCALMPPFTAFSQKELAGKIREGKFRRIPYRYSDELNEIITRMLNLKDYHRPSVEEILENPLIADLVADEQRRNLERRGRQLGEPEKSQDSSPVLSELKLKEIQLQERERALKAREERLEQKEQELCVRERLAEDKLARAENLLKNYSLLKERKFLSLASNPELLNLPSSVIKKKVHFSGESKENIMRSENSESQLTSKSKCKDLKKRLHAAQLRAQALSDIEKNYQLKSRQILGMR

[6] = target: panel of more than 300 wild-type and mutant kinases (313 kinase panel) (Homo sapiens, UniProt Q9NQU5); test: as above; settings: kinase PAK6; 1 μM
[7] = target: panel of more than 300 wild-type and mutant kinases (313 kinase panel) (Homo sapiens, UniProt P22694); test: as above; settings: kinase PKACβ; 1 μM
[8] = 4-4 cell, read-out: cell panel IC50, J82
[9] = 4-4 cell, read-out: cell panel IC50, PA-1
[10] = 4-4 cell, read-out: cell panel IC50, SJCRH30
[11] = 4-4 cell, read-out: cell panel IC50, SR
[12] = 769-P, read-out: cell panel IC50, 769-P
[13] = 786-0, read-out: cell panel IC50, 786-0
[14] = A 172, read-out: cell panel IC50, A-172
[15] = A204, read-out: cell panel IC50, A-204
[16] = A498, read-out: cell panel IC50, A-498
[17] = A549, read-out: cell panel IC50, A-549
[18] = A-375, read-out: cell panel IC50, A375
[19] = A-427, read-out: cell panel IC50, A-427
[20] = ACHN, read-out: cell panel IC50, ACHN
[21] = AN3-CA, read-out: cell panel IC50, AN3 CA
[22] = AU565, read-out: cell panel IC50, AU-565
[23] = BT-20, read-out: cell panel IC50, BT-20
[24] = BT-549, read-out: cell panel IC50, BT-549
[25] = BXPC-3, read-out: cell panel IC50, BxPC-3
[26] = C-33-A, read-out: cell panel IC50, C-33 A
[27] = CAL-27, read-out: cell panel IC50, CAL 27
[28] = CCRF-CEM, read-out: cell panel IC50, CCRF-CEM
[29] = DLD-1, read-out: cell panel IC50, DLD-1
[30] = FaDu, read-out: cell panel IC50, FaDu
[31] = HCT-15, read-out: cell panel IC50, HCT-15
[32] = HCT-116, read-out: cell panel IC50, HCT-116
[33] = Hs-578T, read-out: cell panel IC50, Hs 578T
[34] = Jurkat E6.1, read-out: cell panel IC50, Jurkat E6.1
[35] = K562, read-out: cell panel IC50, K-562
[36] = LS174T, read-out: cell panel IC50, LS 174T
[37] = LoVo, read-out: cell panel IC50, LoVo
[38] = MG-63, read-out: cell panel IC50, MG-63
[39] = MOLT-4, read-out: cell panel IC50, MOLT-4
[40] = MeWo, read-out: cell panel IC50, MeWo
[41] = NCI-H82, read-out: cell panel IC50, NCI-H82
[42] = NCI-H460, read-out: cell panel IC50, NCI-H460
[43] = OVCAR-3, read-out: cell panel IC50, OVCAR-3
[44] = RPMI-7951, read-out: cell panel IC50, RPMI-7951
[45] = SHP77, read-out: cell panel IC50, SHP-77
[46] = SK-N-AS, read-out: cell panel IC50, SK-N-AS
[47] = SW48, read-out: cell panel IC50, SW48
[48] = SW480, read-out: cell panel IC50, SW480
[49] = SW-620, read-out: cell panel IC50, SW620
[50] = U2OS, read-out: cell panel IC50, U-2 OS
[51] = U-87 MG, 72 h, read-out: IC50 in cell proliferation assay (table S5 cellpanel data)

O=S(=O)(c1cccc2cnccc12)N1CCCNCC1 [fasudil]
IC50 [1, 8]: > 31.6 µM | IC50 [1, 9]: > 31.6 µM | IC50 [1, 10]: > 31.6 µM | IC50 [1, 11]: 14.6 µM | IC50 [1, 12]: > 31.6 µM | IC50 [1, 13]: > 31.6 µM | IC50 [1, 14]: > 31.6 µM | IC50 [1, 15]: > 31.6 µM | IC50 [1, 16]: > 31.6 µM | IC50 [1, 17]: > 31.6 µM | IC50 [1, 18]: 19.7 µM | IC50 [1, 19]: > 31.6 µM | IC50 [1, 20]: > 31.6 µM | IC50 [1, 21]: 29.8 µM | IC50 [1, 22]: > 31.6 µM | IC50 [1, 23]: > 31.6 µM | IC50 [1, 24]: > 31.6 µM | IC50 [1, 25]: > 31.6 µM | IC50 [1, 26]: > 31.6 µM | IC50 [1, 27]: > 31.6 µM | IC50 [1, 28]: > 31.6 µM | IC50 [1, 29]: > 31.6 µM | IC50 [1, 30]: > 31.6 µM | IC50 [1, 31]: > 31.6 µM | IC50 [1, 32]: > 31.6 µM | IC50 [1, 33]: > 31.6 µM | IC50 [1, 34]: > 31.6 µM | IC50 [1, 35]: > 31.6 µM | IC50 [1, 36]: > 31.6 µM | IC50 [1, 37]: > 31.6 µM | IC50 [1, 38]: > 31.6 µM | IC50 [1, 39]: > 31.6 µM | IC50 [1, 40]: > 31.6 µM | IC50 [1, 41]: > 31.6 µM | IC50 [1, 42]: > 31.6 µM | IC50 [1, 43]: > 31.6 µM | IC50 [1, 44]: > 31.6 µM | IC50 [1, 45]: > 31.6 µM | IC50 [1, 46]: > 31.6 µM | IC50 [1, 47]: > 31.6 µM | IC50 [1, 48]: > 31.6 µM | IC50 [1, 49]: > 31.6 µM | IC50 [1, 50]: > 31.6 µM | IC50 [1, 51]: > 31.6 µM | %-inhibition, ABL(E255K) [2]: -3% | %-inhibition of FGFR1(V561M) [3]: 2.35% | %-inhibition, AXL ([4]; kinase AXL, 1 μM compound): 2.62% | %-inhibition of NEK2 [5]: -1% | %-inhibition of PAK6 [6]: 8%

CS(=O)(=O)CCNCc1ccc(-c2ccc3ncnc(Nc4ccc(OCc5cccc(F)c5)c(Cl)c4)c3c2)o1 [lapatinib]
IC50 [1, 8]: 15.5 µM | IC50 [1, 9]: 12.4 µM | IC50 [1, 10]: 12.3 µM | IC50 [1, 11]: 7.6 µM | IC50 [1, 12]: 8.8 µM | IC50 [1, 13]: 11.5 µM | IC50 [1, 14]: 13.8 µM | IC50 [1, 15]: 10.6 µM | IC50 [1, 16]: 9.97 µM | IC50 [1, 17]: 15.6 µM | IC50 [1, 18]: 14.9 µM | IC50 [1, 19]: 12.7 µM | IC50 [1, 20]: 5.79 µM | IC50 [1, 21]: 12 µM | IC50 [1, 22]: 0.137 µM | IC50 [1, 23]: 17.3 µM | IC50 [1, 24]: 16.7 µM | IC50 [1, 25]: 6.59 µM | IC50 [1, 26]: 0.446 µM | IC50 [1, 27]: 2.56 µM | IC50 [1, 28]: 10.1 µM | IC50 [1, 29]: 12.9 µM | IC50 [1, 30]: 0.902 µM | IC50 [1, 31]: 8.92 µM | IC50 [1, 32]: 13.8 µM | IC50 [1, 33]: 14.6 µM | IC50 [1, 34]: 7.05 µM | IC50 [1, 35]: 14.2 µM | IC50 [1, 36]: 7.07 µM | IC50 [1, 37]: 9.08 µM | IC50 [1, 38]: 12.3 µM | IC50 [1, 39]: 8.79 µM | IC50 [1, 40]: 14.5 µM | IC50 [1, 41]: 11.7 µM | IC50 [1, 42]: 16.2 µM | IC50 [1, 43]: > 31.6 µM | IC50 [1, 44]: 13.7 µM | IC50 [1, 45]: 14.1 µM | IC50 [1, 46]: 12.7 µM | IC50 [1, 47]: 22.8 µM | IC50 [1, 48]: 13.2 µM | IC50 [1, 49]: 21.1 µM | IC50 [1, 50]: 12.9 µM | IC50 [1, 51]: 10.5 µM | %-inhibition, ABL(E255K) [2]: -4.67% | %-inhibition of PKACβ [7]: -3% | %-inhibition, AXL ([4]; 1 µM): 19% | %-inhibition of NEK2 [5]: -3.7% | %-inhibition of PAK6 [6]: 0.144%

Source: paper PMC3961306, “Comparison of the Cancer Gene Targeting and Biochemical Selectivities of All Targeted Kinase Inhibitors Approved for Clinical Use” (PLoS ONE, 2014)
